Experimental data reported in PMC7504417 (International Journal of Molecular Sciences, 2020).
Counter-ions that a name gives are not always drawn. Like-named read-outs stand apart in the source and are kept apart here.

How the values were obtained:
[1] = biological target: T1, insulin receptor peptide INSR 392–404 (Homo sapiens, UniProt P06213); assay: biochemical; type: binding
T1 construct: purchased RS Synthesis (Louisville, KY, USA); host or cells: chemical synthesis

[2] = biological target: reduced glutathione (Glut RED, ECG); assay: UV spectrophotometry binding to reduced glutathione; details: UV spectrophotometry at 200 nm, pH 7.00 phosphate-buffered saline, ca. 24 °C
[3] = biological target: T2, insulin receptor peptide INSR 157–166 (Homo sapiens, UniProt P06213); assay: biochemical; type: binding
T2 construct: INSR 157–166; purchased RS Synthesis (Louisville, KY, USA); host or cells: chemical synthesis

[4] = biological target: oxidized glutathione (Glut OX, ECG-ECG); assay: UV spectrophotometry binding to oxidized glutathione; details: UV spectrophotometry; single value, or first (higher-affinity) value of a cell a/b; read-out: Kd (µM) Glut OX ECG-ECG
[5] = biological target: T3, mu opioid receptor peptide Mu OPR 121–131 (Homo sapiens, UniProt P35372); assay: biochemical; type: binding
T3 construct: Mu OPR 121–131; purchased RS Synthesis (Louisville, KY, USA); host or cells: chemical synthesis

[6] = biological target: dopamine 1 receptor peptide D1DR 96–98 FCN (Homo sapiens, UniProt P21728); assay: biochemical
[7] = biological target: T4, histamine 1 receptor peptide H1HR 77–87 GAVVMPMNILYL (Homo sapiens, UniProt P35367); assay: biochemical; type: binding
T4 construct: H1HR 77–87 GAVVMPMNILYL; purchased RS Synthesis (Louisville, KY, USA); host or cells: chemical synthesis

[8] = biological target: T5, beta 2 adrenergic receptor peptide B2AR 183–185 NCY (Homo sapiens, UniProt P07550); assay: biochemical; type: binding; details: for binding to adrenergic receptor peptide 183–185 (NCY), in words: Figure 4
T5 construct: B2AR 183–185 NCY; purchased RS Synthesis (Louisville, KY, USA); host or cells: chemical synthesis

[9] = biological target: T6, mu opioid receptor peptide Mu OPR 38–51 (Homo sapiens, UniProt P35372); assay: biochemical; type: binding; details: read-out: Kd (µM) Mu OPR 38–51
T6 construct: Mu OPR 38–51; purchased RS Synthesis (Louisville, KY, USA); host or cells: chemical synthesis

[10] = biological target: T7, mu opioid receptor peptide Mu OPR 111–122 (Homo sapiens, UniProt P35372); assay: biochemical; type: binding
T7 construct: Mu OPR 111–122; purchased RS Synthesis (Louisville, KY, USA); host or cells: chemical synthesis

[11] = biological target: T8, beta 2 adrenergic receptor peptide B2AR 105–108 WCEF (Homo sapiens, UniProt P07550); assay: biochemical; type: binding
T8 construct: B2AR 105–108 WCEF; purchased RS Synthesis (Louisville, KY, USA); host or cells: chemical synthesis

[12] = biological target: T9, histamine 1 receptor peptide H1HR 105–108 SMDY (Homo sapiens, UniProt P35367); assay: biochemical; type: binding
T9 construct: H1HR 105–108 SMDY; purchased RS Synthesis (Louisville, KY, USA); host or cells: chemical synthesis

[13] = biological target: T10, mu opioid receptor peptide Mu OPR 132–143 (Homo sapiens, UniProt P35372); assay: biochemical; type: binding
T10 construct: Mu OPR 132–143; purchased RS Synthesis (Louisville, KY, USA); host or cells: chemical synthesis

[14] = biological target: T11, beta 2 adrenergic receptor peptide B2AR 97–103 KMWTFGN (Homo sapiens, UniProt P07550); assay: biochemical; type: binding
T11 construct: B2AR 97–103 KMWTFGN; purchased RS Synthesis (Louisville, KY, USA); host or cells: chemical synthesis

[15] = biological target: T12, mu opioid receptor peptide Mu OPR 211–226 (Homo sapiens, UniProt P35372); assay: biochemical; type: binding
T12 construct: Mu OPR 211–226; purchased RS Synthesis (Louisville, KY, USA); host or cells: chemical synthesis

[16] = biological target: T13, histamine 1 receptor peptide HIHR 177–183 RDKCETD (Homo sapiens, UniProt P35367, E177R); assay: biochemical; type: binding
T13 construct: HIHR 177–183 RDKCETD; purchased RS Synthesis (Louisville, KY, USA); host or cells: chemical synthesis

receptor peptides tested = assay: UV spectrophotometry binding to all peptides tested (summary)
Glutathione = assay: Overall pattern of binding: Glutathione (reduced and oxidized)
[17] = UV spectrophotometry, read-out: Kd (µM) INSR 157–166
[18] = UV spectrophotometry, read-out: Kd (µM) B2AR 183–185 NCY
[19] = UV spectrophotometry, read-out: Kd (µM) B2AR 105–108 WCEF
[20] = UV spectrophotometry, read-out: Kd (µM) B2AR 97–103 KMWTFGN
[21] = UV spectrophotometry, single value, or first (higher-affinity) value of a cell a/b
[22] = UV spectrophotometry, single value, or first (higher-affinity) value of a cell a/b, read-out: Kd (µM) H1HR 77–87 […]
[23] = UV spectrophotometry, single value, or first (higher-affinity) value of a cell a/b, read-out: Kd (µM) H1HR 105–108 SMDY
[24] = UV spectrophotometry, read-out: Kd (µM) HIHR 177–183 RDKCETD
[25] = read-out: Kd (µM) INSR 392–404, UV spectrophotometry

| Compound | Kd ([1]; UV spectrophotometry) [µM] | Kd [2] [µM] | Kd [3, 17] [µM] | Kd [4] [µM] | Kd [6] [µM] | Kd [8, 18] [µM] | Kd [11, 19] [µM] | Kd [14, 20] [µM] | binding to adrenergic receptor peptide 183–185 (NCY), in words [8] | Kd [12, 23] [µM] | Kd [16, 24] [µM] | further results |
| --- | --- | --- | --- | --- | --- | --- | --- | --- | --- | --- | --- | --- |
| N[C@@H](Cc1ccc(O)c(O)c1)C(=O)O [L-DOPA, L-3,4-dihydroxyphenylalanine] | > 1000 | 50 | 90 | 50 | – | – | – | – | – | – | – | – |
| O=C1OC(C(O)CO)C(=O)C1=O (stereo not drawn) [Dehydro Asc, dehydroascorbic acid] | > 1000 | 60 | 150 | 60 | 20 | 500 | 20 | 60 | – | – | – | Kd [5]: > 1000 µM; Kd ([7]; read-out: Kd (µM) H1HR 77–87 […]): 35 µM; Kd [9]: > 1000 µM; Kd ([2]; listed as dehydroascorbic acid): ~60 µM; Kd [10]: > 1000 µM; Kd ([12]; read-out: Kd (µM) H1HR 105–108 SMDY): 15 µM; Kd [13]: > 1000 µM; Kd [15]: 150 µM; Kd [16]: > 1000 µM |
| NC[C@H](O)c1ccc(O)c(O)c1 [Norepinephrine, norepinephrine HCl] | – | 110 | – | 60 | – | – | – | – | – | – | – | binding to a transmembrane region (OPR 121–131), in words [5]: do not bind significantly |
| N[C@@H](Cc1ccccc1)C(=O)O [Phenylalanine, phenylalanine] | > 1000 | > 1000 | 90 | 90 | 25 | 30 | 55 | > 1000 | Significant binding | 60 | 50 | Kd [5, 21]: > 1000 µM; Kd [7, 22]: > 1000 µM; Kd [9, 21]: 50 µM; Kd [10, 21]: > 1000 µM; Kd [13, 21]: 80 µM; Kd [15, 21]: 200 µM |
| N[C@@H](Cc1ccc(O)cc1)C(=O)O [Tyrosine, tyrosine] | > 1000 | 130 | 90 | 130 | 22 | 35 | 50 | > 1000 | Significant binding | 50 | 50 | Kd [5, 21]: > 1000 µM; Kd [7, 22]: > 1000 µM; Kd [9, 21]: 85 µM; Kd [10, 21]: 700 µM; Kd [13, 21]: 60 µM; Kd [15, 21]: 160 µM |
| N[C@@H](CCC(=O)O)C(=O)O [Glutamate, glutamate] | – | > 1000 | > 1000 | > 1000 | – | > 1000 | > 1000 | > 1000 | No binding was observed | > 1000 | > 1000 | Kd ([7]; read-out: Kd (µM) H1HR 77–87 GAVVMPMNILYL, UV spectrophotometry, single value, or first (higher-affinity) value of a cell a/b, read-out: Kd (µM) H1HR 77–87 […]): > 1000 µM; Kd [1, 25]: > 1000 µM; observable affinity of the peptides tested, in words (receptor peptides tested): none of the peptides tested had observable affinity; binding to either reduced or oxidized glutathione, in words (Glutathione): do not bind appreciably |
| NCC(=O)O [Glycine, glycine] | – | > 1000 | > 1000 | > 1000 | – | > 1000 | > 1000 | > 1000 | No binding was observed | – | – | Kd [1, 25]: > 1000 µM; observable affinity of the peptides tested, in words (receptor peptides tested): none of the peptides tested had observable affinity; binding to either reduced or oxidized glutathione, in words (Glutathione): do not bind appreciably |
| CCC(=O)C(CC(C)N(C)C)(c1ccccc1)c1ccccc1 (stereo not drawn) [Methadone, methadone] | – | – | – | – | 25 | – | – | – | – | – | – | Kd [7]: 50 µM; Kd [8]: > 1000 µM; Kd [1]: > 1000 µM; Kd [11]: 30 µM; Kd [3]: 80 µM; Kd [12]: 10 µM; Kd [14]: 300 µM; Kd [16]: 150 µM |
| CSCC[C@H](NC(=O)[C@H](Cc1ccccc1)NC(=O)CNC(=O)CNC(=O)[C@@H](N)Cc1ccc(O)cc1)C(=O)O [Met-Enkephalin, methionine-enkephalin] | – | – | – | 400 | – | – | – | – | – | – | – | Kd [8]: > 1000 µM; Kd [11]: 30 µM |
